Experimental data reported in PMC3758303 (PLoS ONE, 2013).

Legend:
[1] = tested on: authentic 9.6 kb HCV-RNA replication in HCV-O/RLGE cells; assay: Quantitative RT-PCR of authentic HCV-RNA in HCV-O/RLGE cells; format: cell-based; details: Hepatitis C virus, 72 hrs, real-time LightCycler PCR
Description: (§1) The SI value of each reagent was determined by dividing the CC50 value by the EC50 value.
The RNAs from HCV-RNA replicating cell lines were prepared with an RNeasy extraction kit (Qiagen). The quantitative RT-PCR analysis for HCV-RNA was performed using a real-time LightCycler PCR (Roche Diagnostics, Basel, Switzerland) as described previously, [20].
The genome-length HCV-RNA used in the assay systems described above contains three non-natural elements: RL, neomycin phosphotransferase, and an internal ribosomal entry site of encephalomyocarditis virus. To exclude the possibility that the anti-HCV activity of N-89 or N-251 was due to the inhibition of these three exogenous elements, we examined the anti-HCV activities of N-89 and N-251 using the authentic 9.6 kb HCV-RNA-replicating HCV-O/RLGE cells, which were developed by the introduction of in vitro synthesized HCV-O/RLGE RNA (Fig. 2A) into OR6c cured cells.
Figure 2 Characterization of anti-HCV activities of N-89 and N-251. (A) Schematic gene organization of authentic HCV-RNA (HCV-O/RLGE). The positions of four adaptive mutations - Q1112R, P1115L, E1202G, and K1609E - are indicated by a black star. […] The relative value (%) calculated at each point, when the level in non-treated cells was assigned as 100%, is presented here. Data are expressed as the means±standard deviation of triplicate assays. […]

[2] = tested on: HCV-RNA replication in ORL8 cells; assay: Combination with IFN-α and/or RBV, ORL8 RL assay; format: cell-based, hepatitis C virus; details: 72 hrs; for anti-HCV effect in combination with IFN-α: IFN-α more than 4 IU/ml
Text: We examined the anti-HCV activity of N-89 or N-251 in combination with IFN-α using OR6 and ORL8 assay systems. […] However, such an effect was not clear in the OR6 assay (Fig. S4A). […] Therefore, we next examined the combination effect of RBV in the same way as IFN-α using an ORL8 assay. […] Therefore, we further examined the effect of N89 or N-251 in combination with both IFN-α and RBV using an ORL8 assay.
Figure 6 Synergistic anti-HCV effects of N-89 or N-251 in combination with IFN-α and/or RBV on HCV-RNA replication in ORL8 cells. […] ORL8 cells were treated with N-89 (upper panel) or N-251 (lower panel) in combination with IFN-α (A), RBV (B), or IFN-α and RBV (C) for 72 hrs and subjected to RL assay.

[3] = tested on: HCV-JFH-1 strain (genotype 2a) in Li23-derived D7 cells; assay: JFH-1 reporter assay system, D7 cells; format: cell-based, hepatitis C virus; details: D7 cells inoculated with JR/C5B/BX-2 supernatant, RL assay
Description: HCV infection was performed as described previously. RSc and D7 cells were inoculated with supernatant from RSc cells replicating JR/C5B/BX-2 [29].
Figure 2 Characterization of anti-HCV activities of N-89 and N-251. (A) Schematic gene organization of authentic HCV-RNA (HCV-O/RLGE). The positions of four adaptive mutations - Q1112R, P1115L, E1202G, and K1609E - are indicated by a black star. (B) N-89 and N-251 inhibited authentic HCV-RNA replication. The cells harboring HCV-O/RLGE RNA [19] were treated with N-89 (left panel) and N-251 (right panel) for 72 hrs, followed by real-time LightCycler PCR (black circles in the upper panel) and WST-1 assay (open triangles in the upper panel). The relative value (%) calculated at each point, when the level in non-treated cells was assigned as 100%, is presented here. Data are expressed as the means±standard deviation of triplicate assays. Western blot analysis (lower panels) was performed as described in Fig. 1B. […]
We next examined whether N-89 and N-251 worked in an HCV production system using HCV-JFH-1 strain (genotype 2a). […] To clarify whether anti-HCV activity depends on the difference of genotype or assay model, we evaluated the activities of N-89 and N-251 using RSc-JRN/35B [Ikeda et al., submitted] cells harboring a subgenomic HCV-JFH-1 replicon as an additional assay.

[4] = WST-1 cell proliferation assay, ORL11 cells; format: cell-based; details: human
Description: (§2) The WST-1 cell proliferation assay was performed as described previously. Briefly, The cells were plated onto 96-well plates (1×10^3 cells per well) in triplicate and then treated with each reagent at several concentrations for 72 hrs. After treatment, the cells were subjected to the WST-1 cell proliferation assay (Takara Bio, Otsu, Japan) according to the manufacturer’s protocol. This assay is based on the enzymatic cleavage of the tetrazolium salt WST-1 to formazan by cellular mitochondrial dehydrogenases present in viable cells. Therefore, there are […] the value of the WST-1 assay becomes zero. The experiments were performed at least in triplicate. From the assay results, the 50% cytotoxic concentration (CC50) of each reagent was determined.

[5] = WST-1 cell proliferation assay, sORL11 cells; format: cell-based; details: human
Description: as §2

[6] = tested on: HCV subgenomic replicon RNA (O strain) replication in HuH-7-derived polyclonal sOR cells; assay: sOR RL assay; format: cell-based, hepatitis C virus; details: HuH-7, subgenomic replicon
Description: RSc and D7 cells were derived from the cell lines HuH-7 and Li23, respectively, were cultured as described previously, [29]. HuH-7-derived OR6 [13], AH1R [30], and 1B-4R [Ikeda et al., submitted] cells harboring genome-length HCV-RNA and HuH-7-derived polyclonal sOR [31], and RSc-JRN/35B [Ikeda et al., submitted] cells harboring an HCV subgenomic replicon were cultured with medium in the presence of G418 (0.3 mg/ml; Geneticin, Invitrogen, Carlsbad, CA) as described previously. Li23-derived ORL8 [20], ORL11 [20], 1B-4RL [Ikeda et al., submitted], and KAH5RL [Ikeda et al., submitted] cells harboring genome-length HCV-RNA were maintained with medium in the presence of G418 (0.3 mg/ml) as described previously. Li23-derived polyclonal sORL8 and sORL11 cells harboring an HCV replicon, which were established by the transfection of ORN/3-5B/QR,KE,SR RNA into the cured OL8 and OL11 cells, respectively, were also cultured with medium in the presence of G418 (0.3 mg/ml) as described previously. Cured cells, from which the HCV-RNA had been eliminated by IFN treatment, were also maintained with medium in the absence of G418 as described previously. […] Therefore, when HCV-RNA is excluded from the cells or when its level is decreased, the cells are killed in the presence of G418.
RL assay was performed as described previously, [24]. Briefly, the cells were plated onto 24-well plates (2×10^4 cells per well) in triplicate and then treated with each reagent at several concentrations for 72 hrs. After treatment, the cells were subjected to luciferase assay using the RL assay system (Promega, Madison, WI). The experiments were performed at least in triplicate. From the assay results, the 50% effective concentration (EC50) of each reagent was determined.
as §1

[7] = WST-1 cell proliferation assay, ORL8 cells; format: cell-based; details: human
Description: as §2

Compound | EC50 [1] | anti-HCV effect in combination with RBV [2] | anti-HCV effect in combination with both IFN-α and RBV [2] | anti-HCV effect in combination with IFN-α [2] | anti-HCV activity for the HCV-JFH-1 strain [3] | CC50 at 72 h [4] | CC50 at 72 h [5] | EC50 ([6]; Hepatitis C virus, Huh-7, 72 h) | EC50 ([6]; 72 hrs) | CC50 at 72 h [7]
C1CCCCCC2(CCCCC1)OOCCCOO2 [N-89, 1,2,6,7-Tetraoxaspiro[7.11]nonadecane] | 2000 nM | synergistic effect | synergistically enhanced | synergistic effect | did not show anti-HCV activity | 560 nM | 1700 nM | < 1000 nM | 580 nM | 2300 nM
OCCCCCCC1COOC2(CCCCCCCCCCC2)OOC1 [N-251, 6-(1,2,6,7-tetraoxaspiro[7.11]nonadec-4-yl)hexan-1-ol] | 1600 nM | synergistic effect | synergistically enhanced | synergistic effect | did not show anti-HCV activity | 1100 nM | 3100 nM | < 1000 nM | 690 nM | 1300 nM
